Laboratory results reported in paper PMC11671526, “β-caryophyllene sensitizes hepatocellular carcinoma cells to chemotherapeutics and inhibits cell malignancy through targeting MAPK signaling pathway” (Frontiers in Pharmacology, 2024).

System: HepG2 cells
Test: RNA-seq transcriptome analysis of differentially expressed genes
Type: cell-based, human
Details: BCP vs control HepG2
Procedure: The quality and concentration of RNA were examined by MOPS RNA electrophoresis and Eppendorf BioSpectrometer. The transcriptome analysis was performed by BGI-Wuhan China. The RNA-seq dataset of this study is accessible in the Gene Expression Omnibus (GEO) with an access number of GSE276099. The sequence library for each sample was prepared using the BGISEQ-500 platform with a 50-bp single-end (SE50) format. […]2.2.1) was used to align the clean reads to the reference genome and alignment of the clean reads to the reference genes was carried out using Bowtie2 (v2.4.5) ([Langmead and Salzberg, 2012]; [Kim et al., 2015]). Gene expression levels were calculated by RSEM (v1.3.1) ([Li and Dewey, 2011]). Analysis of differential gene expression was performed using edgeR in the Bioconductor software package ([Robinson et al., 2010]). Using a standard protocol, the RNA samples were also examined by reverse transcription and quantitative polymerase chain reaction (RT-qPCR). In brief, for reverse transcription, total RNA (1 μg) and gDNA wiper Mix were incubated at 42°C for 2 min. The samples were immediately incubated with a master mix containing 10 pmol/μL of poly (dT) primers at 37°C for 15 min and 85°C for 5 s. To detect the expression of specific genes by qPCR analysis, gene-specific primers (shown in Supplementary Table S1) were mixed with the ChamQ Universal SYBER qPCR Master Mix and the reaction was conducted using the Roche Lightcycler 480. The GAPDH value was used to normalize the results of each gene. The RNA-seq data of BCP-treated HepG2 cells were screened for DEGs. Gene symbols were turned into Enterz ID using the org.Hs.eg.db Bio-conductor R package. The cluster profiler (v4.6.2) package was used to perform the Kyoto Encyclopedia of Genes and Genomes (KEGG) and Gene Ontology (GO) enrichment analyses ([Wu et al., 2021]). Following the Transcript per million (TPM) data of the dataset, the line chart, and heatmap were plotted using ggplot2 and pheatmap R packages, respectively.

C=C1CC/C=C(\C)CC[C@@H]2[C@@H]1CC2(C)C [BCP, β-caryophyllene]
logFC APOBEC3C (gene APOBEC3C, RNA-seq): -0.5856 | change APOBEC3C (gene APOBEC3C, DEG direction): Down | logFC ARRB1 (gene ARRB1, RNA-seq): -0.7626 | change ARRB1 (gene ARRB1, DEG direction): Down | logFC ATP9A (gene ATP9A, RNA-seq): 0.6507 | change ATP9A (gene ATP9A, DEG direction): Up | logFC ATP11C (gene ATP11C, RNA-seq): -0.7847 | change ATP11C (gene ATP11C, DEG direction): Down | logFC AXIN2 (gene AXIN2, RNA-seq): 0.6672 | change AXIN2 (gene AXIN2, DEG direction): Up | logFC B4GALNT4 (gene B4GALNT4, RNA-seq): -0.5947 | change B4GALNT4 (gene B4GALNT4, DEG direction): Down | logFC BACE2 (gene BACE2, RNA-seq): 0.7147 | change BACE2 (gene BACE2, DEG direction): Up | logFC BICDL1 (gene BICDL1, RNA-seq): -0.8616 | change BICDL1 (gene BICDL1, DEG direction): Down | logFC BIRC7 (gene BIRC7, RNA-seq): 0.7538 | change BIRC7 (gene BIRC7, DEG direction): Up | logFC BIVM-ERCC5 (gene BIVM-ERCC5, RNA-seq): 0.699 | change BIVM-ERCC5 (gene BIVM-ERCC5, DEG direction): Up | logFC BLCAP (gene BLCAP, RNA-seq): -0.6138 | change BLCAP (gene BLCAP, DEG direction): Down | logFC BMP2 (gene BMP2, RNA-seq): 0.7686 | change BMP2 (gene BMP2, DEG direction): Up | logFC BUB1B-PAK6 (gene BUB1B-PAK6, RNA-seq): -1.6183 | change BUB1B-PAK6 (gene BUB1B-PAK6, DEG direction): Down | logFC C1orf198 (gene C1orf198, RNA-seq): 0.6 | change C1orf198 (gene C1orf198, DEG direction): Up | logFC C1orf216 (gene C1orf216, RNA-seq): -0.8102 | change C1orf216 (gene C1orf216, DEG direction): Down | logFC C3orf80 (gene C3orf80, RNA-seq): -1.174 | change C3orf80 (gene C3orf80, DEG direction): Down | logFC C4B (gene C4B, RNA-seq): 2.54 | change C4B (gene C4B, DEG direction): Up | logFC C11orf86 (gene C11orf86, RNA-seq): -1.473 | change C11orf86 (gene C11orf86, DEG direction): Down | logFC C19orf71 (gene C19orf71, RNA-seq): 0.8161 | change C19orf71 (gene C19orf71, DEG direction): Up | logFC CA5B (gene CA5B, RNA-seq): -1.2201 | change CA5B (gene CA5B, DEG direction): Down | logFC CARD6 (gene CARD6, RNA-seq): -1.5314 | change CARD6 (gene CARD6, DEG direction): Down | logFC CCDC24 (gene CCDC24, RNA-seq): 1.127 | change CCDC24 (gene CCDC24, DEG direction): Up | logFC CCDC86 (gene CCDC86, RNA-seq): -0.7779 | change CCDC86 (gene CCDC86, DEG direction): Down | logFC CCL2 (gene CCL2, RNA-seq): -1.48 | change CCL2 (gene CCL2, DEG direction): Down | logFC CCL5 (gene CCL5, RNA-seq): -1.124 | change CCL5 (gene CCL5, DEG direction): Down | logFC CCL26 (gene CCL26, RNA-seq): -1.513 | change CCL26 (gene CCL26, DEG direction): Down | logFC CELF2 (gene CELF2, RNA-seq): 0.8875 | change CELF2 (gene CELF2, DEG direction): Up | logFC CHST2 (gene CHST2, RNA-seq): -1.145 | change CHST2 (gene CHST2, DEG direction): Down | logFC CKAP2L (gene CKAP2L, RNA-seq): 0.6857 | change CKAP2L (gene CKAP2L, DEG direction): Up | logFC CLDN2 (gene CLDN2, RNA-seq): 1.355 | change CLDN2 (gene CLDN2, DEG direction): Up | logFC CLIP2 (gene CLIP2, RNA-seq): -0.6426 | change CLIP2 (gene CLIP2, DEG direction): Down | logFC CLK1 (gene CLK1, RNA-seq): 0.5953 | change CLK1 (gene CLK1, DEG direction): Up | logFC CLTCL1 (gene CLTCL1, RNA-seq): 0.7125 | change CLTCL1 (gene CLTCL1, DEG direction): Up | logFC COL1A1 (gene COL1A1, RNA-seq): 0.6324 | change COL1A1 (gene COL1A1, DEG direction): Up | logFC COL4A1 (gene COL4A1, RNA-seq): 0.7663 | change COL4A1 (gene COL4A1, DEG direction): Up | logFC COL7A1 (gene COL7A1, RNA-seq): 0.6003 | change COL7A1 (gene COL7A1, DEG direction): Up | logFC CPM (gene CPM, RNA-seq): 0.6061 | change CPM (gene CPM, DEG direction): Up | logFC CPS1 (gene CPS1, RNA-seq): 0.6121 | change CPS1 (gene CPS1, DEG direction): Up | logFC CRABP2 (gene CRABP2, RNA-seq): -0.6843 | change CRABP2 (gene CRABP2, DEG direction): Down | logFC CREB3L4 (gene CREB3L4, RNA-seq): 0.5981 | change CREB3L4 (gene CREB3L4, DEG direction): Up | logFC CREG2 (gene CREG2, RNA-seq): 0.6638 | change CREG2 (gene CREG2, DEG direction): Up | logFC CRELD1 (gene CRELD1, RNA-seq): 0.9439 | change CRELD1 (gene CRELD1, DEG direction): Up | logFC CSRP2 (gene CSRP2, RNA-seq): 0.7909 | change CSRP2 (gene CSRP2, DEG direction): Up | logFC CYP1A1 (gene CYP1A1, RNA-seq): -0.7093 | change CYP1A1 (gene CYP1A1, DEG direction): Down | logFC CYP3A5 (gene CYP3A5, RNA-seq): -1.0618 | change CYP3A5 (gene CYP3A5, DEG direction): Down | logFC CYP3A7 (gene CYP3A7, RNA-seq): -2.402 | change CYP3A7 (gene CYP3A7, DEG direction): Down | logFC CYP11A1 (gene CYP11A1, RNA-seq): -1.306 | change CYP11A1 (gene CYP11A1, DEG direction): Down | logFC CYP26B1 (gene CYP26B1, RNA-seq): -0.8298 | change CYP26B1 (gene CYP26B1, DEG direction): Down | logFC DAAM1 (gene DAAM1, RNA-seq): -0.6083 | change DAAM1 (gene DAAM1, DEG direction): Down | logFC DDIT3 (gene DDIT3, RNA-seq): 0.9459 | change DDIT3 (gene DDIT3, DEG direction): Up | logFC DDR2 (gene DDR2, RNA-seq): 0.7117 | change DDR2 (gene DDR2, DEG direction): Up | logFC DENND2D (gene DENND2D, RNA-seq): -1.958 | change DENND2D (gene DENND2D, DEG direction): Down | logFC DEPDC1 (gene DEPDC1, RNA-seq): 0.5867 | change DEPDC1 (gene DEPDC1, DEG direction): Up | logFC DGKD (gene DGKD, RNA-seq): 0.5855 | change DGKD (gene DGKD, DEG direction): Up | logFC DLG2 (gene DLG2, RNA-seq): -1.169 | change DLG2 (gene DLG2, DEG direction): Down | logFC DNER (gene DNER, RNA-seq): 1.171 | change DNER (gene DNER, DEG direction): Up | logFC DOCK4 (gene DOCK4, RNA-seq): -0.9058 | change DOCK4 (gene DOCK4, DEG direction): Down | logFC EFNB2 (gene EFNB2, RNA-seq): -0.688 | change EFNB2 (gene EFNB2, DEG direction): Down | logFC EGLN3 (gene EGLN3, RNA-seq): -0.764
